Patent US10960015B2, “Effervescent formulation based on pyridoxal-5-phosphate” (Assistance Publique-Hopitaux De Paris, priority 2015, dated 2021)

How the values were obtained:
Assay type in all cases: physicochemical
[1] = Laser diffraction granulometry (dry mode, Mastersizer S)
Method: Laser Diffraction Granulometry (European Pharmacopeia (PE), Current Edition, 2.9.31)
Analysis of the granulometric distribution was performed in dry mode on a Mastersizer S laser granulometer (Malvern®). The detection range of this instrument in dry mode is from 0.05 μm to 900 μm. This study was performed on 20 g of active principle, at a pressure of 1, 2 and 3 bar. Each test was performed 3 times for each pressure.

[2] = Funnel flow (Erweka flow tester, PE 2.9.16); conditions: standardized funnel; 100 g raw materials, 20 g mixtures
Method: (§1) A. Funnel Flow and Angle of Repose (PE 2.9.16-2.9.36)
(§2) The tests were performed on an Erweka® flow tester on all of the raw materials and mixtures tested using a standardized funnel. The tests performed on the raw materials were carried out on 100 g of powder, and on 20 g for mixtures (batches A, F, G, H, I, J).

[3] = Angle of repose (PE 2.9.36); conditions: mixing time 5 minutes
Method: as §1, §2
Determination of the angle of repose was performed on the powders alone and on the mixtures, as defined in the European Pharmacopeia. Different mixing times of 5, 10 and 30 minutes were tested on the mixtures (batches of F to J) to determine the influence of the mixing time on the flow (Table IV).

[4] = Tapped density (volumenometer, PE 2.9.34); conditions: after tamping; for Hausner ratio: criterion <1.20; for Carr index: criterion <20%
Method: B. Tapped Density (PE 2.9.34)
The tests were performed on a volumenometer (Erweka® GmbH SVM12). The Carr and Hausner indices can be determined by this test. The tests performed on the raw materials were carried out on 100 g of powder, and on 20 g for mixtures (batches A, F, G, H, I, J).

Cc1ncc(COP(=O)(O)O)c(C=O)c1O [Batch A, Pyridoxal-5-phosphate]
d50 ([1]; dry mode): 11 μm
particle size ([1]; dry mode, 1, 2 and 3 bar): below 100 μm
Flow [2]: no flow

OC[C@H]1O[C@@](CO)(O[C@H]2O[C@H](CO)[C@@H](O)[C@H](O)[C@H]2O)[C@@H](O)[C@@H]1O [Batch D, Sucrose]
Angle of repose [3]: 40.5°
Angle of repose, Interpretation [3]: Quite
Carr index, interpretation [4]: Excellent
Compactibility (V10-V500) [4]: 3 mL
Hausner ratio, interpretation [4]: Excellent
Hausner ratio [4]: 1.10
Carr index [4]: 8.70%
Flow [2]: 22 s

OC[C@@H](O)[C@@H](O)[C@H](O)[C@@H](O)CO [Batch E, Sorbitol]
Angle of repose [3]: 43.6°
Angle of repose, Interpretation [3]: Passable
Carr index, interpretation [4]: Excellent
Compactibility (V10-V500) [4]: 9 mL
Hausner ratio, interpretation [4]: Excellent
Hausner ratio [4]: 1.10
Carr index [4]: 9.05%
Flow [2]: 9.6 s

OC[C@@H](O)[C@@H](O)[C@H](O)[C@H](O)CO [Batch Q, Mannitol]
Angle of repose [3]: 38.3°
Angle of repose, Interpretation [3]: Quite
Carr index, interpretation [4]: Excellent
Compactibility (V10-V500) [4]: 0 mL
Hausner ratio, interpretation [4]: Excellent
Hausner ratio [4]: 1.02
Carr index [4]: 7.48%
Flow [2]: 27.1 s

Isomalt [Batch C]
Angle of repose [3]: 45°
Angle of repose, Interpretation [3]: Passable
Carr index, interpretation [4]: Good
Compactibility (V10-V500) [4]: 8 mL
Hausner ratio, interpretation [4]: Good
Hausner ratio [4]: 1.13
Carr index [4]: 11.25%
Flow [2]: 23.8 s
